From article PMC5218480 (PLoS ONE, 2017)

System: MV-4-11 cells
Assay: Gene expression microarray analysis (Affymetrix PrimeView) and GSEA
Format: cell-based, human
Set-up: RFU PODN (11730768_x_at) / Fold change /veh PODN (11730768_x_at) / RFU LINC00158 (11744669_a_at) / Fold change /veh LINC00158 (11744669_a_at) / RFU DUSP10 (11751237_a_at) / Fold change /veh DUSP10 (11751237_a_at) / RFU ID3 (11757404_x_at) / Fold change /veh ID3 (11757404_x_at) / RFU PLEKHG5 (11737974_s_at) / Fold change /veh PLEKHG5 (11737974_s_at) / RFU LRRC4B (11730491_at) / Fold change /veh LRRC4B (11730491_at) / RFU GIMAP4 (11747438_a_at) / Fold change /veh GIMAP4 (11747438_a_at) / RFU KRT8 (11758183_x_at) / Fold change /veh KRT8 (11758183_x_at) / RFU CNN1 (11734310_a_at) / Fold change /veh CNN1 (11734310_a_at) / RFU VPS37D (11726825_at) / Fold change /veh VPS37D (11726825_at) / RFU C10orf10 (11716522_x_at) / Fold change /veh C10orf10 (11716522_x_at) / RFU KIR2DL2 /// KIR2DL4 /// KIR2DL5A /// KIR2DL5B /// KIR2DS1 /// KIR2DS2 /// KIR2DS3 /// KIR2DS4 /// KIR3DL3 /// KIR3DL3 /// KIR3DS1 (11738374_at) / Fold change /veh KIR2DL2 /// KIR2DL4 /// KIR2DL5A /// KIR2DL5B /// KIR2DS1 /// KIR2DS2 /// KIR2DS3 /// KIR2DS4 /// KIR3DL3 /// KIR3DL3 /// KIR3DS1 (11738374_at) / RFU C1QL1 (11718748_at) / Fold change /veh C1QL1 (11718748_at) / RFU TMPRSS4 (11747572_a_at) / Fold change /veh TMPRSS4 (11747572_a_at) / RFU HAMP (11756126_x_at) / Fold change /veh HAMP (11756126_x_at) / RFU RNFT2 (11725882_a_at) / Fold change /veh RNFT2 (11725882_a_at) / RFU NR4A2 (11747474_a_at) / Fold change /veh NR4A2 (11747474_a_at) / RFU ABCC12 (11746883_a_at) / Fold change /veh ABCC12 (11746883_a_at) / RFU TMEM136 (11760407_x_at) / Fold change /veh TMEM136 (11760407_x_at) / RFU CLDN22 /// WWC2 (11732394_at) / Fold change /veh CLDN22 /// WWC2 (11732394_at) / RFU HLA-DPB1 (11760878_x_at) / Fold change /veh HLA-DPB1 (11760878_x_at) / RFU SPINT1 (11716480_a_at) / Fold change /veh SPINT1 (11716480_a_at) / RFU GAP43 (11754022_s_at) / Fold change /veh GAP43 (11754022_s_at) / RFU A4GNT (11735810_at) / Fold change /veh A4GNT (11735810_at) / RFU PRB3 (11715151_x_at) / Fold change /veh PRB3 (11715151_x_at) / RFU TUBB4B (11761932_at) / Fold change /veh TUBB4B (11761932_at) / RFU CAPN14 (11732068_a_at) / Fold change /veh CAPN14 (11732068_a_at) / RFU TMCC2 (11721928_a_at) / Fold change /veh TMCC2 (11721928_a_at) / RFU IRGQ (11745062_a_at) / Fold change /veh IRGQ (11745062_a_at) / RFU FAM174B (11720279_a_at) / Fold change /veh FAM174B (11720279_a_at) / RFU TMPRSS4 (11748680_a_at) / Fold change /veh TMPRSS4 (11748680_a_at) / RFU FAM212B (11763350_a_at) / Fold change /veh FAM212B (11763350_a_at) / RFU PLEKHG5 (11743358_a_at) / Fold change /veh PLEKHG5 (11743358_a_at) / RFU ZSCAN30 (11745921_a_at) / Fold change /veh ZSCAN30 (11745921_a_at) / RFU CMKLR1 (11741424_a_at) / Fold change /veh CMKLR1 (11741424_a_at) / RFU LOC101060620 /// MAPK8IP1 (11723275_at) / Fold change /veh LOC101060620 /// MAPK8IP1 (11723275_at) / RFU SPTSSB (11747773_x_at) / Fold change /veh SPTSSB (11747773_x_at) / RFU PRSS12 (11739890_at) / Fold change /veh PRSS12 (11739890_at) / RFU BIN1 (11741810_x_at) / Fold change /veh BIN1 (11741810_x_at) / RFU WNT11 (11732464_a_at) / Fold change /veh WNT11 (11732464_a_at) / RFU C10orf10 (11716521_a_at) / Fold change /veh C10orf10 (11716521_a_at) / RFU C5orf56 (11738089_at) / Fold change /veh C5orf56 (11738089_at) / RFU CYB561 (11721691_x_at) / Fold change /veh CYB561 (11721691_x_at) / RFU ANKRD19P (11752326_a_at) / Fold change /veh ANKRD19P (11752326_a_at) / RFU OR2T12 /// OR2T33 /// OR2T8 (11738714_s_at) / Fold change /veh OR2T12 /// OR2T33 /// OR2T8 (11738714_s_at) / RFU VCAN (11748164_a_at) / Fold change /veh VCAN (11748164_a_at) / RFU JSRP1 (11732532_at) / Fold change /veh JSRP1 (11732532_at) / RFU KRTAP10-11 (11738290_x_at) / Fold change /veh KRTAP10-11 (11738290_x_at) / RFU MYO3A (11730013_a_at) / Fold change /veh MYO3A (11730013_a_at) / RFU EBF3 (11725865_a_at) / Fold change /veh EBF3 (11725865_a_at) / RFU CAMK2N1 (11719241_x_at) / Fold change /veh CAMK2N1 (11719241_x_at) / RFU C5orf56 (11738088_a_at) / Fold change /veh C5orf56 (11738088_a_at) / RFU OLFML3 (11715873_a_at) / Fold change /veh OLFML3 (11715873_a_at) / RFU LOC100653217 /// NTM (11731650_a_at) / Fold change /veh LOC100653217 /// NTM (11731650_a_at) / RFU MAPK11 (11762145_a_at) / Fold change /veh MAPK11 (11762145_a_at) / RFU FIZ1 (11724087_x_at) / Fold change /veh FIZ1 (11724087_x_at) / RFU OASL (11726364_x_at) / Fold change /veh OASL (11726364_x_at) / RFU SOX15 (11748057_x_at) / Fold change /veh SOX15 (11748057_x_at) / RFU CD79A (11719716_a_at) / Fold change /veh CD79A (11719716_a_at) / RFU HIST1H1D (11736915_at) / Fold change /veh HIST1H1D (11736915_at) / RFU CASKIN2 (11723855_a_at) / Fold change /veh CASKIN2 (11723855_a_at) / RFU LOC730098 (11760151_x_at) / Fold change /veh LOC730098 (11760151_x_at) / RFU OR4N2 (11742367_at) / Fold change /veh OR4N2 (11742367_at) / RFU PRRT2 (11749266_a_at) / Fold change /veh PRRT2 (11749266_a_at) / RFU SNX32 (11753110_a_at) / Fold change /veh SNX32 (11753110_a_at) / RFU CDHR5 (11726645_a_at) / Fold change /veh CDHR5 (11726645_a_at) / RFU RCAN1 (11760418_a_at) / Fold change /veh RCAN1 (11760418_a_at) / RFU FAM167A (11723789_a_at) / Fold change /veh FAM167A (11723789_a_at) / RFU FAM26E (11764081_at) / Fold change /veh FAM26E (11764081_at) / RFU ISYNA1 (11749810_s_at) / Fold change /veh ISYNA1 (11749810_s_at) / RFU ACY1 (11761880_at) / Fold change /veh ACY1 (11761880_at) / RFU 11764098_at / Fold change /veh 11764098_at / RFU SAMD14 (11745864_x_at) / Fold change /veh SAMD14 (11745864_x_at) / RFU NPB (11741838_a_at) / Fold change /veh NPB (11741838_a_at) / RFU TMPRSS6 (11731388_a_at) / Fold change /veh TMPRSS6 (11731388_a_at) / RFU KRTAP10-2 (11738614_at) / Fold change /veh KRTAP10-2 (11738614_at) / RFU ARHGAP8 /// PRR5-ARHGAP8 (11727945_x_at) / Fold change /veh ARHGAP8 /// PRR5-ARHGAP8 (11727945_x_at) / RFU KRTAP5-7 /// NADSYN1 (11734609_at) / Fold change /veh KRTAP5-7 /// NADSYN1 (11734609_at) / RFU RASL12 (11751679_a_at) / Fold change /veh RASL12 (11751679_a_at) / RFU CDKN2B (11736163_a_at) / Fold change /veh CDKN2B (11736163_a_at) / RFU PRF1 (11729649_at) / Fold change /veh PRF1 (11729649_at) / RFU, ZNF638 /// ZNF638-IT1 / Fold change vs veh, ZNF638 /// ZNF638-IT1 / RFU, PANK3 / Fold change vs veh, PANK3 / RFU, SH3YL1 / Fold change vs veh, SH3YL1 / RFU, ZEB2 / Fold change vs veh, ZEB2 / RFU, NRIP1 / Fold change vs veh, NRIP1 / RFU, PTTG1IP / Fold change vs veh, PTTG1IP / RFU, CAPN2 / Fold change vs veh, CAPN2 / RFU, MED14 / Fold change vs veh, MED14 / RFU, SNORA58 / Fold change vs veh, SNORA58 / RFU, C1orf63 / Fold change vs veh, C1orf63 / RFU, LRRFIP1 / Fold change vs veh, LRRFIP1 / RFU, NDUFAF7 / Fold change vs veh, NDUFAF7 / RFU, SLC12A2 / Fold change vs veh, SLC12A2 / RFU, IBTK / Fold change vs veh, IBTK / RFU, ESF1 / Fold change vs veh, ESF1 / Fold change vs veh, TMEM50B / RFU, TAOK1 / Fold change vs veh, TAOK1 / RFU, ACBD3 / Fold change vs veh, ACBD3 / RFU, TMA16 / Fold change vs veh, TMA16 / RFU, RWDD3 / Fold change vs veh, RWDD3 / RFU, BCAT1 / Fold change vs veh, BCAT1 / RFU, EDEM3 / Fold change vs veh, EDEM3 / RFU, TMEM33 / Fold change vs veh, TMEM33 / RFU, WDR75 / Fold change vs veh, WDR75 / RFU, AHCTF1 / Fold change vs veh, AHCTF1 / RFU, TFRC / Fold change vs veh, TFRC / RFU, ZDHHC17 / Fold change vs veh, ZDHHC17 / RFU, NOM1 / Fold change vs veh, NOM1 / RFU, ARL8B / Fold change vs veh, ARL8B / RFU, ZBTB11 / Fold change vs veh, ZBTB11 / RFU, TAMM41 / Fold change vs veh, TAMM41 / RFU, KIAA1704 /// LOC100996395 / Fold change vs veh, KIAA1704 /// LOC100996395 / RFU, ING1 / Fold change vs veh, ING1 / RFU, TRMT61B / Fold change vs veh, TRMT61B / RFU, FUBP3 / Fold change vs veh, FUBP3 / RFU, TP53 / Fold change vs veh, TP53 / RFU, TNKS2 / Fold change vs veh, TNKS2 / RFU, ZFP14 / Fold change vs veh, ZFP14 / RFU, ACTR2 / Fold change vs veh, ACTR2 / RFU, PPP3R1 / Fold change vs veh, PPP3R1 / RFU, PIK3R1 / Fold change vs veh, PIK3R1 / RFU, HNRNPA1 / Fold change vs veh, HNRNPA1 / RFU, RNF170 / Fold change vs veh, RNF170 / RFU, ZNF28 / Fold change vs veh, ZNF28 / RFU, RNGTT / Fold change vs veh, RNGTT / RFU, OGT / Fold change vs veh, OGT / RFU, BRD1 / Fold change vs veh, BRD1 / RFU, MARS / Fold change vs veh, MARS / RFU, ZNF655 / Fold change vs veh, ZNF655 / RFU, FAHD1 / Fold change vs veh, FAHD1 / RFU, BDP1 / Fold change vs veh, BDP1 / RFU, LRRCC1 / Fold change vs veh, LRRCC1 / RFU, ARID1A / Fold change vs veh, ARID1A / RFU, ZNF146 / Fold change vs veh, ZNF146 / RFU, ZNF330 / Fold change vs veh, ZNF330 / RFU, GPN3 / Fold change vs veh, GPN3 / RFU, C9orf123 / Fold change vs veh, C9orf123 / RFU, N4BP2L2 / Fold change vs veh, N4BP2L2 / RFU, ARFIP1 / Fold change vs veh, ARFIP1 / RFU, FAM179B / Fold change vs veh, FAM179B / RFU, BCL10 / Fold change vs veh, BCL10 / RFU, UHRF1BP1L / Fold change vs veh, UHRF1BP1L / RFU, BET1 / Fold change vs veh, BET1 / RFU, CNOT2 / Fold change vs veh, CNOT2 / RFU, ZNF268 / Fold change vs veh, ZNF268 / Fold change vs veh, ZNF507 / RFU, DGCR2 / Fold change vs veh, DGCR2 / RFU, WDSUB1 / Fold change vs veh, WDSUB1 / Fold change vs veh, HSP90B1 /// MIR3652 / RFU, ADSS / Fold change vs veh, ADSS / RFU, GK / Fold change vs veh, GK / RFU, ZNF148 / Fold change vs veh, ZNF148 / RFU, TAF9 / Fold change vs veh, TAF9 / RFU, SLC1A5 / Fold change vs veh, SLC1A5 / RFU, SLMO2 / Fold change vs veh, SLMO2 / RFU, ABCC4 / Fold change vs veh, ABCC4 / RFU, LOC101060439 /// RAP1B / Fold change vs veh, LOC101060439 /// RAP1B / RFU, RFX7 / Fold change vs veh, RFX7 / RFU, GTPBP10 / Fold change vs veh, GTPBP10 / RFU, CNEP1R1 / Fold change vs veh, CNEP1R1 / RFU, BIVM-ERCC5 /// ERCC5 / Fold change vs veh, BIVM-ERCC5 /// ERCC5 / RFU, ILF3 / Fold change vs veh, ILF3 / RFU 11762660_at / Fold change /veh 11762660_at / RFU VCAN (11757783_s_at) / Fold change /veh VCAN (11757783_s_at) / RFU DDX43 (11728927_at) / Fold change /veh DDX43 (11728927_at) / RFU KRT8 (11758188_x_at) / Fold change /veh KRT8 (11758188_x_at) / RFU NKD1 (11759106_at) / Fold change /veh NKD1 (11759106_at) / RFU SRD5A1 (11742802_a_at) / Fold change /veh SRD5A1 (11742802_a_at) / RFU TPSAB1 /// TPSB2 (11721975_s_at) / Fold change /veh TPSAB1 /// TPSB2 (11721975_s_at) / RFU GSTM3 (11746129_a_at) / Fold change /veh GSTM3 (11746129_a_at) / RFU IL23R (11737362_x_at) / Fold change /veh IL23R (11737362_x_at) / RFU TMEM51 (11727254_a_at) / Fold change /veh TMEM51 (11727254_a_at) / RFU PIWIL2 (11732686_x_at) / Fold change /veh PIWIL2 (11732686_x_at) / RFU ORM1 (11744905_x_at) / Fold change /veh ORM1 (11744905_x_at) / RFU CCDC152 (11743942_at) / Fold change /veh CCDC152 (11743942_at) / RFU ECM1 (11717891_a_at) / Fold change /veh ECM1 (11717891_a_at) / RFU IL23R (11748794_a_at) / Fold change /veh IL23R (11748794_a_at) / RFU TNFAIP8L3 (11732012_x_at) / Fold change /veh TNFAIP8L3 (11732012_x_at) / RFU MBOAT4 (11741988_at) / Fold change /veh MBOAT4 (11741988_at) / RFU 11764193_at / Fold change /veh 11764193_at / RFU TMEM53 (11763286_at) / Fold change /veh TMEM53 (11763286_at) / RFU MAGEB2 (11727129_at) / Fold change /veh MAGEB2 (11727129_at) / RFU TMEM200A (11744735_a_at) / Fold change /veh TMEM200A (11744735_a_at) / RFU CCDC152 (11751479_a_at) / Fold change /veh CCDC152 (11751479_a_at) / RFU FAM211A (11726209_a_at) / Fold change /veh FAM211A (11726209_a_at) / RFU RGS16 (11746705_a_at) / Fold change /veh RGS16 (11746705_a_at) / RFU VCAN (11755009_s_at) / Fold change /veh VCAN (11755009_s_at) / RFU RHOB (11743442_s_at) / Fold change /veh RHOB (11743442_s_at) / RFU RGS16 (11720943_a_at) / Fold change /veh RGS16 (11720943_a_at) / RFU RGS16 (11720944_at) / Fold change /veh RGS16 (11720944_at) / RFU, VPS4B / Fold change vs veh, VPS4B / RFU, CREB1 / Fold change vs veh, CREB1 / RFU, DNAJC13 / Fold change vs veh, DNAJC13 / RFU, GNAQ / Fold change vs veh, GNAQ / RFU, CDK5R1 / Fold change vs veh, CDK5R1 / RFU, ZRANB3 / Fold change vs veh, ZRANB3 / RFU, CUL4A / Fold change vs veh, CUL4A / RFU, CCNY / Fold change vs veh, CCNY / RFU, UFL1 / Fold change vs veh, UFL1 / RFU, COG3 / Fold change vs veh, COG3 / RFU, DIAPH2 / Fold change vs veh, DIAPH2 / RFU, SKA2 / Fold change vs veh, SKA2 / RFU, AFF3 / Fold change vs veh, AFF3 / RFU, LMF1 / Fold change vs veh, LMF1 / RFU, IPO11 / Fold change vs veh, IPO11 / RFU, DFFB / Fold change vs veh, DFFB / RFU, FOXP1 / Fold change vs veh, FOXP1 / RFU, CARD8 / Fold change vs veh, CARD8 / RFU, STRN3 / Fold change vs veh, STRN3 / RFU, ADK / Fold change vs veh, ADK / RFU, RASSF2 / Fold change vs veh, RASSF2 / RFU, WIPF1 / Fold change vs veh, WIPF1 / RFU, LARP1B / Fold change vs veh, LARP1B / RFU, RASA1 / Fold change vs veh, RASA1 / RFU, RB1 / Fold change vs veh, RB1 / RFU, PPFIA1 / Fold change vs veh, PPFIA1 / RFU, MAT2A / Fold change vs veh, MAT2A / RFU, CCT5 / Fold change vs veh, CCT5 / RFU, WDR92 / Fold change vs veh, WDR92 / RFU, CUX1 / Fold change vs veh, CUX1 / RFU, TTC7A / Fold change vs veh, TTC7A / RFU, TMEM135 / Fold change vs veh, TMEM135 / RFU, DEPTOR / Fold change vs veh, DEPTOR / RFU, CPM / Fold change vs veh, CPM / RFU, DNAJB6 / Fold change vs veh, DNAJB6 / RFU, CACNA2D3 / Fold change vs veh, CACNA2D3 / RFU, DTX4 / Fold change vs veh, DTX4 / RFU, TFCP2 / Fold change vs veh, TFCP2 / RFU, GMCL1 /// GMCL1P1 / Fold change vs veh, GMCL1 /// GMCL1P1 / RFU, AEBP2 / Fold change vs veh, AEBP2 / RFU, SNHG1 /// SNORD22 /// SNORD25 /// SNORD26 /// SNORD27 /// SNORD28 /// SNORD29 /// SNORD31 / Fold change vs veh, SNHG1 /// SNORD22 /// SNORD25 /// SNORD26 /// SNORD27 /// SNORD28 /// SNORD29 /// SNORD31 / Fold change (Aza/veh), C12orf56 (ProbeSet 11735607_a_at) / Fold change (ACY-1035/veh), C12orf56 (ProbeSet 11735607_a_at) / Fold change (Aza/veh), FGFR1OP (ProbeSet 11751329_s_at) / Fold change (ACY-1035/veh), FGFR1OP (ProbeSet 11751329_s_at) / Fold change (Aza/veh), VPS36 (ProbeSet 11739960_a_at) / Fold change (ACY-1035/veh), VPS36 (ProbeSet 11739960_a_at) / RFU SYPL1 (11715823_x_at) / Fold change /veh SYPL1 (11715823_x_at) / RFU IGFBP7 (11715501_s_at) / Fold change /veh IGFBP7 (11715501_s_at) / RFU REEP3 (11722064_at) / Fold change /veh REEP3 (11722064_at) / RFU IGLL1 (11728026_x_at) / Fold change /veh IGLL1 (11728026_x_at): dose or concentration left out as unconfirmed
Settings: MV-4-11 cells, 48 hours

## Nc1ncn([C@@H]2O[C@H](CO)[C@@H](O)[C@H]2O)c(=O)n1 [azacitidine]
  RFU MYO3A (11730013_a_at): 81.22 RFU
